Measured values taken from ChEMBL document CHEMBL1151287, “Discorhabdin W, the first dimeric discorhabdin” (J Nat Prod, 2005).

System: P388
Assay: Cytotoxicity against mouse P388 cells
Type: functional, cell-based

`O=C1C2=C3C4=[N+](CCc5c[nH]c1c54)[C@H]1C[C@@]34C[C@@H](N2)SC4=CC1=O` [DISCORHABDIN D] and `O=C1C2=C3C4=[N+](CCc5c[nH]c1c54)[C@@H]1C(=O)C=C4S[C@@H](C[C@@]43[C@H]1O)N2` [DISCORHABDIN L] are within 1.5-fold of each other in IC50: 1.6 µM for the first, 1.1 µM for the second.

Going from `O=C1C=C[C@@]23C[C@@H](NC4=C2C2=NCCc5c[nH]c(c52)C4=O)SC3=C1` to `O=C1C=C2S[C@H]3C[C@]2(C=C1Br)C1=C(N3)C(=O)c2[nH]cc3c2C1=NCC3` [DISCORHABDIN B], the IC50 falls from 0.51 µM to 0.087 µM (5.9-fold).

For `O=C1C=C(SSC2=CC(=O)C(Br)=C[C@]23C=CNC2=C3C3=NCCc4c[nH]c(c43)C2=O)[C@@]2(C=CNC3=C2C2=NCCc4c[nH]c(c42)C3=O)C=C1Br` [DISCORHABDIN W], the IC50 was 0.084 µM.
